Data taken from patent publication US12569452B2, “Ophthalmic compositions comprising F6H8” (NOVALIQ GMBH, priority 2017, dated 2026).

Assay: Ocular tissue distribution after single topical ocular dose of 14C-F6H8, liquid scintillation counting
Type: in vivo, Dutch Belted (pigmented) female rabbits
Conditions: for Mean concentration of radioactivity, Conjunctiva (bulbar) / Mean concentration of radioactivity, Conjunctiva (palpebral) / Mean concentration of radioactivity, Cornea / Mean concentration of radioactivity, Lacrimal gland (accessory) / Mean concentration of radioactivity, Lacrimal gland (main) / Mean concentration of radioactivity, Meibomian glands / Mean concentration of radioactivity, Sclera (anterior) / Mean concentration of radioactivity, Tears: single topical ocular dose
Protocol: The study is conducted to assess the ocular tissue distribution after topical ocular administration of ^14C-1-Perfluorohexyloctane (F6H8, NovaTears®) to Dutch Belted (pigmented) female rabbits.
On the first day of dosing, 5.474 mL of ^14C—F6H8 is combined with 9.526 mL of F6H8. The dose formulation is magnetically stirred and appears to be a colorless solution. The dose formulation is separated into vials to provide one vial per day for dose administration and it is stored at approximately −20° C. One vial per day is thawed prior to dose administration. In between dose administrations, the vial is capped and stored at approximately 5° C. when not in use.
Animals are not fasted prior to dose administration. All animals receive single 35 μL-drops of the dose formulation in each eye, with the right eye dosed first. All collection times are based on the time of dosing of the second (left) eye for the last dose, as applicable.
After the dose is administered, the eye is allowed to close naturally. Each animal is then restrained for approximately 1 minute to prevent rubbing of the eyes.
Tears and Ocular Tissue Collection: Tears are collected from two animals per group per time point at 0.25, 0.5, 1, 2, 4, 8, and 24 hours post-dose following the single dose or the last dose of the multiple dose scheme. Tears are collected using Tear Flo Test (TFT) strips that were dye free. One strip of paper is used for each eye for each time point. Following collection, the tube containing the strip is placed on dry ice or stored at approximately −70° C. until analysed.
At the time of sacrifice, both eyes are enucleated and ocular tissues including Aqueous humour, Conjunctiva (bulbar), Conjunctiva (palpebral), Lacrimal gland (accessory), Lacrimal gland (main), Meibomian glands (tarsal plate), Choroid-Retinal pigmented epithelium (Choroid-RPE), Cornea, Iris-ciliary body (ICB), Retina, Sclera (anterior), Sclera (posterior), Vitreous humour are collected.
Radioanalysis: All samples are analyzed for radioactivity in a Model 2900TR liquid scintillation counter (Packard Instrument Company) for at least 5 minutes or 100,000 counts, utilizing Ultima Gold XR or Hionic Fluor scintillation cocktails (Perkin Elmer). Each sample is homogenized before radioanalysis, unless the entire sample is used for analysis. All samples are analyzed in duplicate if sample size allows.
For Conjunctiva (bulbar and palpebral), Cornea, Lacrimal gland (main), Meibomian glands, Retina, and Sclera (anterior and posterior), each sample is digested in 2M sodium hydroxide in ethanol (80:20, v:v) and maintained at room temperature or in an oven set no higher than 30° C. until dissolved. Scintillation cocktail is added, and the samples are shaken and analyzed directly by LSC.
For Lacrimal gland (accessory), each sample is digested in 2M sodium hydroxide in ethanol (80:20, v:v) and maintained at room temperature or in an oven set no higher than 30° C. until dissolved. The sample is homogenized by mixing and duplicate weighed aliquots are analyzed directly by LSC.
For Tears, at least 10 mL of Ultima Gold XR scintillation cocktail is added, and the samples are shaken and analyzed by LSC.
Single topical ocular administration, radioanalysis of ocular tissues: The rabbits received a single topical ocular administration in both eyes. The target dose level is 45.6 mg/eye (25 μCi/eye). Following the single topical ocular dose of 35 μl of ^14C—F6H8, two animals per time point are sacrificed at 0.25, 0.5, 1, 2, 4, 8, and 24 hours post-dose in a sparse sampling profile. Ocular tissues (including tears collected prior to sacrifice) are collected from all animals at sacrifice.

[1] = single dose, between 0.25 and 4 hours post-dose

Radioactivity in the iris-ciliary body and choroid-RPE (single dose): No radioactivity is detected
Radioactivity in the vitreous humour and retina (single dose): Low levels
Highest mean concentration, Meibomian glands [1]: 294000 ng equivalents ^14C—F6H8/g
Highest mean concentration, accessory lacrimal gland [1]: 4280 ng equivalents ^14C—F6H8/g
Highest mean concentration, anterior sclera [1]: 2270 ng equivalents ^14C—F6H8/g
Highest mean concentration, bulbar conjunctiva [1]: 5450 ng equivalents ^14C—F6H8/g
Highest mean concentration, cornea [1]: 8230 ng equivalents ^14C—F6H8/g
Highest mean concentration, main lacrimal gland [1]: 4130 ng equivalents ^14C—F6H8/g
Highest mean concentration, palpebral conjunctiva [1]: 14200 ng equivalents ^14C—F6H8/g
Highest mean concentration, tears [1]: 2390000 ng equivalents ^14C—F6H8/g
Mean concentration of radioactivity, Conjunctiva (bulbar) (0.25 h post-dose): 5450 ng Equivalents ^14C-F6H8/g
Mean concentration of radioactivity, Conjunctiva (palpebral) (0.25 h post-dose): 14200 ng Equivalents ^14C-F6H8/g
Mean concentration of radioactivity, Cornea (0.25 h post-dose): 2040 ng Equivalents ^14C-F6H8/g
Mean concentration of radioactivity, Lacrimal gland (accessory) (0.25 h post-dose): 577 ng Equivalents ^14C-F6H8/g
Mean concentration of radioactivity, Lacrimal gland (main) (0.25 h post-dose): 1670 ng Equivalents ^14C-F6H8/g
Mean concentration of radioactivity, Meibomian glands (0.25 h post-dose): 294000 ng Equivalents ^14C-F6H8/g
Mean concentration of radioactivity, Sclera (anterior) (0.25 h post-dose): 1140 ng Equivalents ^14C-F6H8/g
Mean concentration of radioactivity, Tears (0.25 h post-dose): 2390000 ng Equivalents ^14C-F6H8/g
Mean concentration of radioactivity, Conjunctiva (bulbar) (0.5 h post-dose): 3680 ng Equivalents ^14C-F6H8/g
Mean concentration of radioactivity, Conjunctiva (palpebral) (0.5 h post-dose): 5180 ng Equivalents ^14C-F6H8/g
Mean concentration of radioactivity, Cornea (0.5 h post-dose): 8230 ng Equivalents ^14C-F6H8/g
Mean concentration of radioactivity, Lacrimal gland (accessory) (0.5 h post-dose): 0.00 ng Equivalents ^14C-F6H8/g
Mean concentration of radioactivity, Lacrimal gland (main) (0.5 h post-dose): 2770 ng Equivalents ^14C-F6H8/g
Mean concentration of radioactivity, Meibomian glands (0.5 h post-dose): 102000 ng Equivalents ^14C-F6H8/g
Mean concentration of radioactivity, Sclera (anterior) (0.5 h post-dose): 2270 ng Equivalents ^14C-F6H8/g
Mean concentration of radioactivity, Tears (0.5 h post-dose): 995000 ng Equivalents ^14C-F6H8/g
Mean concentration of radioactivity, Conjunctiva (bulbar) (1 h post-dose): 3320 ng Equivalents ^14C-F6H8/g
Mean concentration of radioactivity, Conjunctiva (palpebral) (1 h post-dose): 5700 ng Equivalents ^14C-F6H8/g
Mean concentration of radioactivity, Cornea (1 h post-dose): 6110 ng Equivalents ^14C-F6H8/g
Mean concentration of radioactivity, Lacrimal gland (accessory) (1 h post-dose): 255 ng Equivalents ^14C-F6H8/g
Mean concentration of radioactivity, Lacrimal gland (main) (1 h post-dose): 641 ng Equivalents ^14C-F6H8/g
Mean concentration of radioactivity, Meibomian glands (1 h post-dose): 57600 ng Equivalents ^14C-F6H8/g
Mean concentration of radioactivity, Sclera (anterior) (1 h post-dose): 1300 ng Equivalents ^14C-F6H8/g
Mean concentration of radioactivity, Tears (1 h post-dose): 444000 ng Equivalents ^14C-F6H8/g
Mean concentration of radioactivity, Conjunctiva (bulbar) (2 h post-dose): 3050 ng Equivalents ^14C-F6H8/g
Mean concentration of radioactivity, Conjunctiva (palpebral) (2 h post-dose): 4230 ng Equivalents ^14C-F6H8/g
Mean concentration of radioactivity, Cornea (2 h post-dose): 3230 ng Equivalents ^14C-F6H8/g
Mean concentration of radioactivity, Lacrimal gland (accessory) (2 h post-dose): 1450 ng Equivalents ^14C-F6H8/g
Mean concentration of radioactivity, Lacrimal gland (main) (2 h post-dose): 1530 ng Equivalents ^14C-F6H8/g
Mean concentration of radioactivity, Meibomian glands (2 h post-dose): 69200 ng Equivalents ^14C-F6H8/g
Mean concentration of radioactivity, Sclera (anterior) (2 h post-dose): 767 ng Equivalents ^14C-F6H8/g
Mean concentration of radioactivity, Tears (2 h post-dose): 700000 ng Equivalents ^14C-F6H8/g
Mean concentration of radioactivity, Conjunctiva (bulbar) (4 h post-dose): 1610 ng Equivalents ^14C-F6H8/g
Mean concentration of radioactivity, Conjunctiva (palpebral) (4 h post-dose): 2500 ng Equivalents ^14C-F6H8/g
Mean concentration of radioactivity, Cornea (4 h post-dose): 4480 ng Equivalents ^14C-F6H8/g
Mean concentration of radioactivity, Lacrimal gland (accessory) (4 h post-dose): 4280 ng Equivalents ^14C-F6H8/g
Mean concentration of radioactivity, Lacrimal gland (main) (4 h post-dose): 4130 ng Equivalents ^14C-F6H8/g
Mean concentration of radioactivity, Meibomian glands (4 h post-dose): 29100 ng Equivalents ^14C-F6H8/g
Mean concentration of radioactivity, Sclera (anterior) (4 h post-dose): 1170 ng Equivalents ^14C-F6H8/g
Mean concentration of radioactivity, Tears (4 h post-dose): 207000 ng Equivalents ^14C-F6H8/g
Mean concentration of radioactivity, Conjunctiva (bulbar) (8 h post-dose): 1340 ng Equivalents ^14C-F6H8/g
Mean concentration of radioactivity, Conjunctiva (palpebral) (8 h post-dose): 1790 ng Equivalents ^14C-F6H8/g
Mean concentration of radioactivity, Cornea (8 h post-dose): 6080 ng Equivalents ^14C-F6H8/g
Mean concentration of radioactivity, Lacrimal gland (accessory) (8 h post-dose): 2110 ng Equivalents ^14C-F6H8/g
Mean concentration of radioactivity, Lacrimal gland (main) (8 h post-dose): 2120 ng Equivalents ^14C-F6H8/g
Mean concentration of radioactivity, Meibomian glands (8 h post-dose): 21100 ng Equivalents ^14C-F6H8/g
Mean concentration of radioactivity, Sclera (anterior) (8 h post-dose): 1330 ng Equivalents ^14C-F6H8/g
Mean concentration of radioactivity, Tears (8 h post-dose): 6660 ng Equivalents ^14C-F6H8/g
Mean concentration of radioactivity, Conjunctiva (bulbar) (24 h post-dose): 1090 ng Equivalents ^14C-F6H8/g
Mean concentration of radioactivity, Conjunctiva (palpebral) (24 h post-dose): 2270 ng Equivalents ^14C-F6H8/g
Mean concentration of radioactivity, Cornea (24 h post-dose): 2730 ng Equivalents ^14C-F6H8/g
Mean concentration of radioactivity, Lacrimal gland (accessory) (24 h post-dose): 1500 ng Equivalents ^14C-F6H8/g
Mean concentration of radioactivity, Lacrimal gland (main) (24 h post-dose): 1810 ng Equivalents ^14C-F6H8/g
Mean concentration of radioactivity, Meibomian glands (24 h post-dose): 14700 ng Equivalents ^14C-F6H8/g
Mean concentration of radioactivity, Sclera (anterior) (24 h post-dose): 611 ng Equivalents ^14C-F6H8/g
Mean concentration of radioactivity, Tears (24 h post-dose): 1300 ng Equivalents ^14C-F6H8/g
Substance: ^14C-1-Perfluorohexyloctane [^14C-F6H8]
